Source: the supplement of paper PMC10883282

How the values were obtained:
Test in all cases: relative viability vs DMSO control (72 h) (fraction); higher = more viable cells
SK-ES-1 = tested on: SK-ES-1
Procedure, shortened: (§1)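 Serially diluted compound, 2.5 µl from source plates spanning 10 mM to 0.0002 mM, was added 24 h after sarcoma cell lines were seeded in 384-well plates at densities targeting 80–90% confluence. Plates then sat 72 h at 37 °C, 5% CO2, with 0.1% DMSO vehicle and a 5 µM positive control. Relative viability came from ATPLite as percent growth, averaged over up to triplicate wells, and was rescaled with 1 as full and 0 as none.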

RD = tested on: RD
Procedure, shortened: as §1

SYO-1 = tested on: SYO-1
Procedure, shortened: as §1

HT1080 = tested on: HT1080
Procedure, shortened: as §1

SK-LMS-1 = tested on: SK-LMS-1
Procedure, shortened: as §1

MES-SA = tested on: MES-SA
Procedure, shortened: as §1

G401 = tested on: G401
Procedure, shortened: as §1

SW1353 = tested on: SW1353
Procedure, shortened: as §1

KHOS-240S = tested on: KHOS-240S
Procedure, shortened: as §1

SW982 = tested on: SW982
Procedure, shortened: as §1

RD-ES = tested on: RD-ES
Procedure, shortened: as §1

VA-ES-BJ = tested on: VA-ES-BJ
Procedure, shortened: as §1

Cc1cc(F)c(C(=O)Nc2cccc(-c3nncn3C(C)C)n2)cc1-n1cnc(C2CC2)c1 [Selonsertib]
Conditions	relative viability
G401, 0.00017 µM	1.02
G401, 0.00051 µM	0.988
G401, 0.00152 µM	1.01
G401, 0.00457 µM	1.01
G401, 0.01372 µM	0.995
G401, 0.04115 µM	1.04
G401, 0.1235 µM	1.01
G401, 0.3704 µM	0.994
G401, 1.111 µM	0.979
G401, 3.333 µM	0.882
G401, 10 µM	0.684
HT1080, 0.00017 µM	1.01
HT1080, 0.00051 µM	1.04
HT1080, 0.00152 µM	1.04
HT1080, 0.00457 µM	1.04
HT1080, 0.01372 µM	1.05
HT1080, 0.04115 µM	1.04
HT1080, 0.1235 µM	1.04
HT1080, 0.3704 µM	1.03
HT1080, 1.111 µM	1.08
HT1080, 3.333 µM	1.09
HT1080, 10 µM	1.081
KHOS-240S, 0.00017 µM	1.05
KHOS-240S, 0.00051 µM	1.07
KHOS-240S, 0.00152 µM	1.04
KHOS-240S, 0.00457 µM	1.06
KHOS-240S, 0.01372 µM	1.07
KHOS-240S, 0.04115 µM	1.06
KHOS-240S, 0.1235 µM	1.07
KHOS-240S, 0.3704 µM	1.06
KHOS-240S, 1.111 µM	1.03
KHOS-240S, 3.333 µM	0.983
KHOS-240S, 10 µM	0.736
MES-SA, 0.00017 µM	0.887
MES-SA, 0.00051 µM	0.892
MES-SA, 0.00152 µM	0.907
MES-SA, 0.00457 µM	0.893
MES-SA, 0.01372 µM	0.895
MES-SA, 0.04115 µM	0.93
MES-SA, 0.1235 µM	0.928
MES-SA, 0.3704 µM	0.912
MES-SA, 1.111 µM	0.87
MES-SA, 3.333 µM	0.78
MES-SA, 10 µM	0.368
RD, 0.00017 µM	1.11
RD, 0.00051 µM	1.11
RD, 0.00152 µM	1.09
RD, 0.00457 µM	1.1
RD, 0.01372 µM	1.11
RD, 0.04115 µM	1.1
RD, 0.1235 µM	1.09
RD, 0.3704 µM	1.11
RD, 1.111 µM	1.12
RD, 3.333 µM	1.11
RD, 10 µM	1.11
RD-ES, 0.00017 µM	0.972
RD-ES, 0.00051 µM	0.988
RD-ES, 0.00152 µM	0.955
RD-ES, 0.00457 µM	0.983
RD-ES, 0.01372 µM	0.999
RD-ES, 0.04115 µM	1.02
RD-ES, 0.1235 µM	0.983
RD-ES, 0.3704 µM	1.01
RD-ES, 1.111 µM	0.994
RD-ES, 3.333 µM	0.975
RD-ES, 10 µM	0.537
SK-ES-1, 0.00017 µM	1.01
SK-ES-1, 0.00051 µM	1.05
SK-ES-1, 0.00152 µM	1.03
SK-ES-1, 0.00457 µM	1.09
SK-ES-1, 0.01372 µM	1.08
SK-ES-1, 0.04115 µM	1.03
SK-ES-1, 0.1235 µM	1.03
SK-ES-1, 0.3704 µM	1.01
SK-ES-1, 1.111 µM	0.988
SK-ES-1, 3.333 µM	0.896
SK-ES-1, 10 µM	0.313
SK-LMS-1, 0.00017 µM	1.07
SK-LMS-1, 0.00051 µM	1.08
SK-LMS-1, 0.00152 µM	1.08
SK-LMS-1, 0.00457 µM	1.09
SK-LMS-1, 0.01372 µM	1.11
SK-LMS-1, 0.04115 µM	1.09
SK-LMS-1, 0.1235 µM	1.09
SK-LMS-1, 0.3704 µM	1.09
SK-LMS-1, 1.111 µM	1.04
SK-LMS-1, 3.333 µM	1.05
SK-LMS-1, 10 µM	0.898
SW982, 0.00017 µM	1.05
SW982, 0.00051 µM	1.05
SW982, 0.00152 µM	1.07
SW982, 0.00457 µM	1.05
SW982, 0.01372 µM	1.08
SW982, 0.04115 µM	1.09
SW982, 0.1235 µM	1.07
SW982, 0.3704 µM	1.09
SW982, 1.111 µM	1.09
SW982, 3.333 µM	1.1
SW982, 10 µM	1.07
SW1353, 0.00017 µM	0.962
SW1353, 0.00051 µM	0.977
SW1353, 0.00152 µM	0.951
SW1353, 0.00457 µM	0.95
SW1353, 0.01372 µM	0.934
SW1353, 0.04115 µM	0.953
SW1353, 0.1235 µM	0.968
SW1353, 0.3704 µM	0.994
SW1353, 1.111 µM	0.986
SW1353, 3.333 µM	0.977
SW1353, 10 µM	0.964
SYO-1, 0.00017 µM	0.95
SYO-1, 0.00051 µM	0.947
SYO-1, 0.00152 µM	0.949
SYO-1, 0.00457 µM	0.94
SYO-1, 0.01372 µM	0.95
SYO-1, 0.04115 µM	0.965
SYO-1, 0.1235 µM	0.944
SYO-1, 0.3704 µM	0.921
SYO-1, 1.111 µM	0.886
SYO-1, 3.333 µM	0.828
SYO-1, 10 µM	0.5622
VA-ES-BJ, 0.00017 µM	0.995
VA-ES-BJ, 0.00051 µM	0.995
VA-ES-BJ, 0.00152 µM	1.01
VA-ES-BJ, 0.00457 µM	0.972
VA-ES-BJ, 0.01372 µM	0.989
VA-ES-BJ, 0.04115 µM	0.977
VA-ES-BJ, 0.1235 µM	0.967
VA-ES-BJ, 0.3704 µM	0.969
VA-ES-BJ, 1.111 µM	0.938
VA-ES-BJ, 3.333 µM	0.918
VA-ES-BJ, 10 µM	0.848
